For 32 molecules, melting point results are on record in patent US6949542B2, “Dihydro-benzo[b][1,4]diazepin-2-one derivatives” (Hoffman-La Roche Inc., priority 2002, dated 2005).

Take `N#Cc1ccc(-c2cccc(C3=Nc4ccc(C(F)(F)F)cc4NC(=O)C3)c2)cn1` [Example 204, 5-[3-(4-Oxo-7-trifluoromethyl-4,5-dihydro-3H-benzo[b][1,4]diazepin-2-yl)-phenyl]-pyridine-2-carbonitrile]: the melting point lay within 234 to 237 °C.
For `O=C1CC(c2cccc(-c3cccnn3)c2)=Nc2ccc(C(F)(F)F)cc2N1` [Example 205, 4-(3-Pyridazin-3-yl-phenyl)-8-trifluoromethyl-1,3-dihydro-benzo[b][1,4]diazepin-2-one], the melting point lay within 238 to 240 °C.
The figure for `O=C1CC(c2cccc(-c3ccc(C4CC4)nc3)c2)=Nc2ccc(OC(F)(F)F)cc2N1` [Example 207, 4-[3-(6-Cyclopropyl-pyridin-3-yl)-phenyl]-8-trifluoromethoxy-1,3-dihydro-benzo[b][1,4]diazepin-2-one] is 190 to 191 °C; for `COCCOc1cc2c(cc1C(F)(F)F)NC(=O)CC(c1cccc(-c3cccnc3)c1)=N2` [Example 208, 7-(2-Methoxy-ethoxy)-4-(3-pyridin-3-yl-phenyl)-8-trifluoromethyl-1,3-dihydro-benzo[b][1,4]diazepin-2-one] it is 190 to 191 °C.
As for `CCc1cc2c(cc1C(F)(F)F)NC(=O)CC(c1cccc(-c3ccnc(C#N)c3)c1)=N2` [Example 210, 4-[3-(8-Ethyl-4-oxo-7-trifluoromethyl-4,5-dihydro-3H-benzo[b][1,4]diazepin-2-yl)-phenyl]-pyridine-2-carbonitrile], the figure is 210 to 217 °C; as for `CCc1cc2c(cc1C(F)(F)F)NC(=O)CC(c1cccc(-c3cccnc3)c1)=N2` [Example 211, 7-Ethyl-4-(3-pyridin-3-yl-phenyl)-8-trifluoromethyl-1,3-dihydro-benzo[b][1,4]diazepin-2-one], 197 to 198 °C; as for `COc1ccc(-c2cccc(C3=Nc4ccc(OC(F)(F)F)cc4NC(=O)C3)c2)cn1` [Example 212, 4-[3-(6-Methoxy-pyridin-3-yl)-phenyl]-8-trifluoromethoxy-1,3-dihydro-benzo[b][1,4]diazepin-2-one], 186 °C.
Molecule `Cc1cc(-c2cccc(C3=Nc4ccc(OC(F)(F)F)cc4NC(=O)C3)c2)cc(C)n1` [Example 213, 4-[3-(2,6-Dimethyl-pyridin-4-yl)-phenyl]-8-trifluoromethoxy-1,3-dihydro-benzo[b][1,4]diazepin-2-one] showed a melting point of 190 to 193 °C.
Take `C=Cc1cc2c(cc1C(F)(F)F)NC(=O)CC(c1cccc(-c3cccnc3)c1)=N2` [Example 214, 4-(3-Pyridin-3-yl-phenyl)-8-trifluoromethyl-7-vinyl-1,3-dihydro-benzo[b][1,4]diazepin-2-one]: the melting point was 208 to 209 °C.
In turn, `CCCOc1cc2c(cc1C(F)(F)F)NC(=O)CC(c1cccc(-c3cccnc3)c1)=N2` [Example 215, 7-Propoxy-4-(3-pyridin-3-yl-phenyl)-8-trifluoromethyl-1,3-dihydro-benzo[b][1,4]diazepin-2-one] gave a melting point of 219 to 221 °C.
As for `CCCOc1cc2c(cc1C(F)(F)F)NC(=O)CC(c1cccc(-c3ccc(C4CC4)nc3)c1)=N2` [Example 216, 4-[3-(6-Cyclopropyl-pyridin-3-yl)-phenyl]-7-propoxy-8-trifluoromethyl-1,3-dihydro-benzo[b][1,4]diazepin-2-one], the figure is 209 to 210 °C.
`Cc1cc2c(cc1C(F)(F)F)NC(=O)CC(c1cccc(-c3ccc(N(C)C)nc3)c1)=N2` [Example 217, 4-[3-(6-Dimethylamino-pyridin-3-yl)-phenyl]-7-methyl-8-trifluoromethyl-1,3-dihydro-benzo[b][1,4]diazepin-2-one] showed a melting point of 231 to 233 °C.
Regarding `CN(C)c1ccc(-c2cccc(C3=Nc4cc(OCC(F)(F)F)c(C(F)(F)F)cc4NC(=O)C3)c2)cn1` [Example 218, 4-[3-(6-Dimethylamino-pyridin-3-yl)-phenyl]-7-(2,2,2-trifluoro-ethoxy)-8-trifluoromethyl-1,3-dihydro-benzo[b][1,4]diazepin-2-one], the melting point is 240 to 241 °C.
`CCCOc1cc2c(cc1C(F)(F)F)NC(=O)CC(c1cccc(-c3cc(C)nc(C)c3)c1)=N2` [Example 219, 4-[3-(2,6-Dimethyl-pyridin-4-yl)-phenyl]-7-propoxy-8-trifluoromethyl-1,3-dihydro-benzo[b][1,4]diazepin-2-one] returned a melting point of 205 to 206 °C.
Turning to `O=C1CC(c2cccc(-c3cccnc3C3CC3)c2)=Nc2ccc(C(F)(F)F)cc2N1` [Example 220, 4-[3-(2-Cyclopropyl-pyridin-3-yl)-phenyl]-8-trifluoromethyl-1,3-dihydro-benzo[b][1,4]diazepin-2-one], the melting point was in the range of 171 to 173 °C.
As for `Cc1cc2c(cc1C(F)(F)F)NC(=O)CC(c1cccc(-c3cccnc3C3CC3)c1)=N2` [Example 221, 4-[3-(2-Cyclopropyl-pyridin-3-yl)-phenyl]-7-methyl-8-trifluoromethyl-1,3-dihydro-benzo[b][1,4]diazepin-2-one], the figure is 173 to 175 °C.
`Cc1ccncc1-c1cccc(C2=Nc3ccc(C(F)(F)F)cc3NC(=O)C2)c1` [Example 226, 4-[3-(4-Methyl-pyridin-3-yl)-phenyl]-8-trifluoromethyl-1,3-dihydro-benzo[b][1,4]diazepin-2-one] gave a melting point of 220 to 221 °C.
As for `CCOc1cc2c(cc1C(F)(F)F)NC(=O)CC(c1cccc(-c3cccnc3C3CC3)c1)=N2` [Example 227, 4-[3-(2-Cyclopropyl-pyridin-3-yl)-phenyl]-7-ethoxy-8-trifluoromethyl-1,3-dihydro-benzo[b][1,4]diazepin-2-one], the melting point fell in the range of 187 to 188 °C.
The figure for `CCCc1cc2c(cc1C(F)(F)F)NC(=O)CC(c1cccc(-c3cc(C)nc(C)c3)c1)=N2` [Example 229, 4-[3-(2,6-Dimethyl-pyridin-4-yl)-phenyl]-7-propyl-8-trifluoromethyl-1,3-dihydro-benzo[b][1,4]diazepin-2-one] is 216 °C; for `CCCc1cc2c(cc1C(F)(F)F)NC(=O)CC(c1cccc(-c3cccnc3)c1)=N2` [Example 230, 7-Propyl-4-(3-pyridin-3-yl-phenyl)-8-trifluoromethyl-1,3-dihydro-benzo[b][1,4]diazepin-2-one] it is 162 °C.
`CCOc1cc2c(cc1C(F)(F)F)NC(=O)CC(c1cccc(-c3cnccc3C)c1)=N2` [Example 231, 7-Ethoxy-4-[3-(4-methyl-pyridin-3-yl)-phenyl]-8-trifluoromethyl-1,3-dihydro-benzo[b][1,4]diazepin-2-one]: the melting point is 213 to 214 °C.
Molecule `Cc1ccncc1-c1cccc(C2=Nc3cc(OCC(F)(F)F)c(C(F)(F)F)cc3NC(=O)C2)c1` [Example 232, 4-[3-(4-Methyl-pyridin-3-yl)-phenyl]-7-(2,2,2-trifluoro-ethoxy)-8-trifluoromethyl-1,3-dihydro-benzo[b][1,4]diazepin-2-one] came in with a melting point of 198 to 200 °C.
The molecule `Cc1ccncc1-c1cccc(C2=Nc3cc(C)c(C(F)(F)F)cc3NC(=O)C2)c1` [Example 233, 7-Methyl-4-[3-(4-methyl-pyridin-3-yl)-phenyl]-8-trifluoromethyl-1,3-dihydro-benzo[b][1,4]diazepin-2-one] displayed a melting point of 205 to 207 °C.
`CCc1ncccc1-c1cccc(C2=Nc3cc(C)c(C(F)(F)F)cc3NC(=O)C2)c1` [Example 234, 4-[3-(2-Ethyl-pyridin-3-yl)-phenyl]-7-methyl-8-trifluoromethyl-1,3-dihydro-benzo[b][1,4]diazepin-2-one]: the melting point turned out to be 213 °C.
For `CCOc1cc2c(cc1C(F)(F)F)NC(=O)CC(c1cccc(-c3cccnc3CC)c1)=N2` [Example 235, 7-Ethoxy-4-[3-(2-ethyl-pyridin-3-yl)-phenyl]-8-trifluoromethyl-1,3-dihydro-benzo[b][1,4]diazepin-2-one], the melting point was found to be 214 °C.
With `CCc1ncccc1-c1cccc(C2=Nc3cc(OCC(F)(F)F)c(C(F)(F)F)cc3NC(=O)C2)c1` [Example 236, 4-[3-(2-Ethyl-pyridin-3-yl)-phenyl]-7-(2,2,2-trifluoro-ethoxy)-8-trifluoromethyl-1,3-dihydro-benzo[b][1,4]diazepin-2-one], the melting point was 184 °C.
As for `Cc1ccc(-c2cccc(C3=Nc4cc(C)c(C(F)(F)F)cc4NC(=O)C3)c2)cn1` [Example 237, 7-Methyl-4-[3-(6-methyl-pyridin-3-yl)-phenyl]-8-trifluoromethyl-1,3-dihydro-benzo[b][1,4]diazepin-2-one], the figure is 235 °C.
The molecule `CCOc1cc2c(cc1C(F)(F)F)NC(=O)CC(c1cccc(-c3ccc(C)nc3)c1)=N2` [Example 238, 7-Ethoxy-4-[3-(6-methyl-pyridin-3-yl)-phenyl]-8-trifluoromethyl-1,3-dihydro-benzo[b][1,4]diazepin-2-one] gave a melting point of 210 °C.
Turning to `Cc1ccc(-c2cccc(C3=Nc4cc(OCC(F)(F)F)c(C(F)(F)F)cc4NC(=O)C3)c2)cn1` [Example 239, 4-[3-(6-Methyl-pyridin-3-yl)-phenyl]-7-(2,2,2-trifluoro-ethoxy)-8-trifluoromethyl-1,3-dihydro-benzo[b][1,4]diazepin-2-one], the melting point is 159 °C.
For the molecule `Cc1cc(-c2cccc(C3=Nc4cc(F)c(C(F)(F)F)cc4NC(=O)C3)c2)cc(C)n1` [Example 240, 4-[3-(2,6-Dimethyl-pyridin-4-yl)-phenyl]-7-fluoro-8-trifluoromethyl-1,3-dihydro-benzo[b][1,4]diazepin-2-one], the melting point was in the range of 251 to 252 °C.
`C=Cc1cc2c(cc1C(F)(F)F)NC(=O)CC(c1cccc(-c3cc(C)nc(C)c3)c1)=N2` [Example 241, 4-[3-(2,6-Dimethyl-pyridin-4-yl)-phenyl]-8-trifluoromethyl-7-vinyl-1,3-dihydro-benzo[b][1,4]diazepin-2-one]: the melting point was in the range of 225 to 226 °C.
For the molecule `COCCOc1cc2c(cc1C(F)(F)F)NC(=O)CC(c1cccc(-c3ccnc(C)c3)c1)=N2` [Example 242, 7-(2-Methoxy-ethoxy)-4-[3-(2-methyl-pyridin-4-yl)-phenyl]-8-trifluoromethyl-1,3-dihydro-benzo[b][1,4]diazepin-2-one], the melting point lay in the range of 198 to 199 °C.
